Measurements taken from patent publication US20220062258A1, “Heterocyclic derivatives” (Merck Patent GmbH, priority 2019, published 2022).

system: HUVEC primary endothelial cells; assay: HUVEC proliferation assay (CyQUANT Direct); assay type: cell-based; settings: Homo sapiens, 72 h, 3 days incubation
Description: HUVEC Proliferation Assay
Proliferation of HUVEC primary endothelial cells was used as cell-based mechanistical assay.^25 Applying the CyQUANT@ Direct Cell Proliferation Assay (Invitrogen C35011) which is based on a cell-permeant fluorescent DNA-binding dye, DNA content is used as a direct measure for cell number. Pooled HUVEC cells (Promocell C-12203) are cultivated in the medium supplied by Promocell (Cat No C-22020) for maximum 4 passages. For the assay 500 cells/well are seeded into black 384-well culture plates with clear bottom in 70 μl culture medium and incubated for 6 hours at 37° C., 5% CO2. 10 μl prediluted test compounds are added and cells incubated for 3 days at 37° C., 5% CO2 before measurement of DNA content. CyQUANT detection reagent is prepared according to the manufacturers protocol, 20 μl/well added and incubated at 37° C., 5% CO2 for at least 1 h before measurement of fluorescence at Envision multimode reader (Perkin-Elmer, Waltham) with excitation 480 nm and emission 535 nm (bottom read mode). The assay is performed as dose response with 10 compound dilutions. Inhibitory values (IC50) were determined using the program ASSAY ANALYZER® from GeneData (Basel, Switzerland).

Going from `O=C1CCC(N2C(=O)c3cccc(NC(=O)CCCCCCCCCCCCCCCCNC(=O)c4cc5cc(N6CC[C@](O)(C(=O)NCc7cc(F)cc(F)c7)C6=O)ccc5[nH]4)c3C2=O)C(=O)N1` (stereo partly drawn) [Compound A57, (3S)—N-[(3,5-difluorophenyl)methyl]-1-{2-[(16-{[2-(2,6-dioxopiperidin-3-yl)-1,3-dioxo-2,3-dihydro-1H-isoindol-4-yl]carbamoyl}hexadecyl)carbamoyl]-1H-indol-5-yl}-3-hydroxy-2-oxopyrrolidine-3-carboxamide] to `O=C1CCC(N2C(=O)c3ccc(NC(=O)CCCCCCCCCCCCCNC(=O)c4cc5cc(N6CC[C@](O)(C(=O)NCc7cc(F)cc(F)c7)C6=O)ccc5[nH]4)cc3C2=O)C(=O)N1` (stereo partly drawn) [Compound A50, (3S)—N-[(3,5-difluorophenyl)methyl]-1-{2-[(13-{[2-(2,6-dioxopiperidin-3-yl)-1,3-dioxo-2,3-dihydro-1H-isoindol-5-yl]carbamoyl}tridecyl)carbamoyl]-1H-indol-5-yl}-3-hydroxy-2-oxopyrrolidine-3-carboxamide], the IC50 falls from over 30000 nM to 180 nM.

Compared with `O=C1CCC(N2C(=O)c3ccc(NC(=O)COCCOCCOCCOCCOCCNC(=O)c4cc5cc(N6CC[C@](O)(C(=O)NCc7cc(F)cc(F)c7)C6=O)ccc5[nH]4)cc3C2=O)C(=O)N1` (stereo partly drawn) [Compound A55, (3S)—N-[(3,5-difluorophenyl)methyl]-1-{2-[(1-{[2-(2,6-dioxopiperidin-3-yl)-1,3-dioxo-2,3-dihydro-1H-isoindol-5-yl]carbamoyl}-2,5,8,11,14-pentaoxahexadecan-16-yl)carbamoyl]-1H-indol-5-yl}-3-hydroxy-2-oxopyrrolidine-3-carboxamide], `O=C1CCC(N2C(=O)c3ccc(OCCOCCOCCOCCOCCNC(=O)c4cc5cc(N6CC[C@](O)(C(=O)NCc7cc(F)cc(F)c7)C6=O)ccc5[nH]4)cc3C2=O)C(=O)N1` (stereo partly drawn) [Compound A52, 5-[(3S)-3-{[(3,5-difluorophenyl)methyl]carbamoyl}-3-hydroxy-2-oxopyrrolidin-1-yl]-N-(14-{[2-(2,6-dioxopiperidin-3-yl)-1,3-dioxo-2,3-dihydro-1H-isoindol-5-yl]oxy}-3,6,9,12-tetraoxatetradecan-1-yl)-1H-indole-2-carboxamide] is lower in IC50: over 30000 nM for the first, 4900 nM for the second.

First: O=C1CCC(N2C(=O)c3cccc(NCCOCCOCCOCCOCCNC(=O)c4cc5cc(N6CC[C@](O)(C(=O)NCc7cc(F)cc(F)c7)C6=O)ccc5[nH]4)c3C2=O)C(=O)N1 (stereo partly drawn) [Compound A44, 5-[(3S)-3-{[(3,5-difluorophenyl)methyl]carbamoyl}-3-hydroxy-2-oxopyrrolidin-1-yl]-N-(14-{[2-(2,6-dioxopiperidin-3-yl)-1,3-dioxo-2,3-dihydro-1H-isoindol-4-yl]amino}-3,6,9,12-tetraoxatetradecan-1-yl)-1H-indole-2-carboxamide]
Second: O=C1CCC(N2C(=O)c3cccc(C#CCOCCOCCOCCOCCOCCNC(=O)c4cc5cc(N6CC[C@](O)(C(=O)NCc7cc(F)cc(F)c7)C6=O)ccc5[nH]4)c3C2=O)C(=O)N1 (stereo partly drawn) [Compound A46, 5-[(3S)-3-{[(3,5-difluorophenyl)methyl]carbamoyl}-3-hydroxy-2-oxopyrrolidin-1-yl]-N-{18-[2-(2,6-dioxopiperidin-3-yl)-1,3-dioxo-2,3-dihydro-1H-isoindol-4-yl]-3,6,9,12,15-pentaoxaoctadec-17-yn-1-yl}-1H-indole-2-carboxamide]
The IC50 of the first is lower: 7000 nM for the first, over 30000 nM for the second. The first is the more potent here.

`O=C1CCC(N2C(=O)c3cccc(NCCOCCOCCOCCOCCN4CCN(C(=O)c5cc6cc(N7CC[C@](O)(C(=O)NCc8cc(F)cc(F)c8)C7=O)ccc6[nH]5)CC4)c3C2=O)C(=O)N1` (stereo partly drawn) [Compound A56, (3S)—N-[(3,5-difluorophenyl)methyl]-1-{2-[4-(14-{[2-(2,6-dioxopiperidin-3-yl)-1,3-dioxo-2,3-dihydro-1H-isoindol-4-yl]amino}-3,6,9,12-tetraoxatetradecan-1-yl)piperazine-1-carbonyl]-1H-indol-5-yl}-3-hydroxy-2-oxopyrrolidine-3-carboxamide] and `O=C1CCC(N2C(=O)c3ccc(NCCOCCOCCOCCN4CCN(C(=O)c5cc6cc(N7CC[C@](O)(C(=O)NCc8cc(F)cc(F)c8)C7=O)ccc6[nH]5)CC4)cc3C2=O)C(=O)N1` (stereo partly drawn) [Compound A48, (3S)—N-[(3,5-difluorophenyl)methyl]-1-{2-[4-(2-{2-[2-(2-{[2-(2,6-dioxopiperidin-3-yl)-1,3-dioxo-2,3-dihydro-1H-isoindol-5-yl]amino}ethoxy)ethoxy]ethoxy}ethyl)piperazine-1-carbonyl]-1H-indol-5-yl}-3-hydroxy-2-oxopyrrolidine-3-carboxamide] are within 1.5-fold of each other in IC50: 120 nM for the first, 85 nM for the second.

First: O=C1CCC(N2C(=O)c3ccc(NCCOCCOCCN4CCC5(CC4)CCN(C(=O)c4cc6cc(N7CC[C@](O)(C(=O)NCc8cc(F)cc(F)c8)C7=O)ccc6[nH]4)CC5)cc3C2=O)C(=O)N1 (stereo partly drawn) [Compound A49, (3S)—N-[(3,5-difluorophenyl)methyl]-1-[2-(9-{2-[2-(2-{[2-(2,6-dioxopiperidin-3-yl)-1,3-dioxo-2,3-dihydro-1H-isoindol-5-yl]amino}ethoxy)ethoxy]ethyl}-3,9-diazaspiro[5.5]undecane-3-carbonyl)-1H-indol-5-yl]-3-hydroxy-2-oxopyrrolidine-3-carboxamide]
Second: O=C1CCC(N2C(=O)c3ccc(NCCOCCOCCOCCNC(=O)c4cc5cc(N6CC[C@](O)(C(=O)NCc7cc(F)cc(F)c7)C6=O)ccc5[nH]4)cc3C2=O)C(=O)N1 (stereo partly drawn) [Compound A42, 5-[(3S)-3-{[(3,5-difluorophenyl)methyl]carbamoyl}-3-hydroxy-2-oxopyrrolidin-1-yl]-N-(2-{2-[2-(2-{[2-(2,6-dioxopiperidin-3-yl)-1,3-dioxo-2,3-dihydro-1H-isoindol-5-yl]amino}ethoxy)ethoxy]ethoxy}ethyl)-1H-indole-2-carboxamide]
The IC50 of the first is 90-fold lower: 51 nM for the first, 4600 nM for the second.

Going from `CN(CCOCCOCCOCCOCCN(C)c1ccc2c(c1)C(=O)N(C1CCC(=O)NC1=O)C2=O)C(=O)c1cc2cc(N3CC[C@](O)(C(=O)NCc4cc(F)cc(F)c4)C3=O)ccc2[nH]1` (stereo partly drawn) [Compound A47, 5-[(3S)-3-{[(3,5-difluorophenyl)methyl]carbamoyl}-3-hydroxy-2-oxopyrrolidin-1-yl]-N-{2-[2-(2,6-dioxopiperidin-3-yl)-1,3-dioxo-2,3-dihydro-1H-isoindol-5-yl]-5,8,11,14-tetraoxa-2-azahexadecan-16-yl}-N-methyl-1H-indole-2-carboxamide] to `CN(CCOCCOCCOCCOCCOCCN(C)c1cccc2c1C(=O)N(C1CCC(=O)NC1=O)C2=O)C(=O)c1cc2cc(N3CC[C@](O)(C(=O)NCc4cc(F)cc(F)c4)C3=O)ccc2[nH]1` (stereo partly drawn) [Compound A45, 5-[(3S)-3-{[(3,5-difluorophenyl)methyl]carbamoyl}-3-hydroxy-2-oxopyrrolidin-1-yl]-N-{2-[2-(2,6-dioxopiperidin-3-yl)-1,3-dioxo-2,3-dihydro-1H-isoindol-4-yl]-5,8,11,14,17-pentaoxa-2-azanonadecan-19-yl}-N-methyl-1H-indole-2-carboxamide], the IC50 rises from 240 nM to 610 nM (2.5-fold). The first is the more potent here.

In the case of `O=C1CCC(N2C(=O)c3ccc(NCCCCOCCCCOCCCCNC(=O)c4cc5cc(N6CC[C@](O)(C(=O)NCc7cc(F)cc(F)c7)C6=O)ccc5[nH]4)cc3C2=O)C(=O)N1` (stereo partly drawn) [Compound A51, 5-[(3S)-3-{[(3,5-difluorophenyl)methyl]carbamoyl}-3-hydroxy-2-oxopyrrolidin-1-yl]-N-{4-[4-(4-{[2-(2,6-dioxopiperidin-3-yl)-1,3-dioxo-2,3-dihydro-1H-isoindol-5-yl]amino}butoxy)butoxy]butyl}-1H-indole-2-carboxamide], the IC50 is reported as 400 nM.
